The text below walks through data of patent publication US11267836B2, “Methods for producing ferric maltol compositions from ligand modified and ligand coated ferric hydroxides” (Shield TX (UK) Limited, priority 2016, dated 2022).

The nature of series [1]: Dissolution in ethanol (check for ferric hydroxide in ferric trimaltol). The note with it: for dissolution of ferric trimaltol powder in ethanol: powders produced as per Examples 1 and 2 dissolved in ethanol, complete dissolution confirms absence of iron hydroxides. The protocol: As such ferric trimaltol powders produced as per Examples 1 and 2 were dissolved in ethanol.

For series [2] the following is noted: in vivo; cited from earlier work.
The next series relates to IBD patients. The settings on record: in vivo; cited from earlier work.

Consider `Cc1occc(=O)c1[O-].Cc1occc(=O)c1[O-].Cc1occc(=O)c1[O-].[Fe+3]` [Example 1], for which the “dissolution of ferric trimaltol powder in ethanol” value in series [1] was “did not”.
As to `Cc1occc(=O)c1[O-].Cc1occc(=O)c1[O-].Cc1occc(=O)c1[O-].[Fe+3]` [Example 2], the “dissolution of ferric trimaltol powder in ethanol” value in series [1] is recorded as “dissolved completely”.
With `Cc1occc(=O)c1[O-].Cc1occc(=O)c1[O-].Cc1occc(=O)c1[O-].[Fe+3]` [Ferric trimaltol, ferric trimaltol], the solubility in ethanol entry in series [1] is “soluble in ethanol”. In addition, the absorption result in series [2] is recorded as “well absorbed”. Also, the tolerability entry with IBD patients is on record as “well tolerated”.
